# Laboratory results as given in PubChem BioAssay AID2060604 (Molecular Pharmacology Branch, DTP, NCI, 2025).
# pIC50: −log10 of the molar value.
# Tested on: 379773-124-R-J2-PDC complex spheroids, viability % test/control
# Assay: Anticancer human tumor 379773-124-R-J2-PDC patient-derived endometrial carcinoma cell line growth inhibition [CLK]
# Settings: for pIC50: curve of first compound; for viability, T/C: stronger effect = lower value
# Outline: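 Multi-cell-type spheroids combined patient-derived tumor cells with HUVEC endothelial cells and human mesenchymal stem cells. Paired agents were dosed in half-log steps down from about clinical Cmax, or from 10 microM where Cmax was unknown.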
# [1] = second compound 0.0316 µM, first compound 0.0316 µM
# [2] = second compound 0.0316 µM, first compound 0.1 µM
# [3] = second compound 0.1 µM, first compound 0.0316 µM
# [4] = second compound 0.1 µM, first compound 0.1 µM
# [5] = second compound 0.316 µM, first compound 0.0316 µM
# [6] = second compound 0.316 µM, first compound 0.1 µM
# [7] = second compound 1 µM, first compound 0.0316 µM
# [8] = second compound 1 µM, first compound 0.1 µM
# [9] = second compound 3.16 µM, first compound 0.0316 µM
# [10] = second compound 3.16 µM, first compound 0.1 µM
# [11] = second compound 10 µM, first compound 0.0316 µM
# [12] = second compound 10 µM, first compound 0.1 µM
# [13] = second compound 0.0316 µM, first compound 0.316 µM
# [14] = second compound 0.0316 µM, first compound 1 µM
# [15] = second compound 0.0316 µM, first compound 3.16 µM
# [16] = second compound 0.0316 µM, first compound 10 µM
# [17] = second compound 0.1 µM, first compound 0.316 µM
# [18] = second compound 0.1 µM, first compound 1 µM
# [19] = second compound 0.1 µM, first compound 3.16 µM
# [20] = second compound 0.1 µM, first compound 10 µM
# [21] = second compound 0.316 µM, first compound 0.316 µM
# [22] = second compound 0.316 µM, first compound 1 µM
# [23] = second compound 0.316 µM, first compound 3.16 µM
# [24] = second compound 0.316 µM, first compound 10 µM
# [25] = second compound 1 µM, first compound 0.316 µM
# [26] = second compound 1 µM, first compound 1 µM
# [27] = second compound 1 µM, first compound 3.16 µM
# [28] = second compound 1 µM, first compound 10 µM
# [29] = second compound 3.16 µM, first compound 0.316 µM
# [30] = second compound 3.16 µM, first compound 1 µM
# [31] = second compound 3.16 µM, first compound 3.16 µM
# [32] = second compound 3.16 µM, first compound 10 µM
# [33] = second compound 10 µM, first compound 0.316 µM
# [34] = second compound 10 µM, first compound 1 µM
# [35] = second compound 10 µM, first compound 3.16 µM
# [36] = second compound 10 µM, first compound 10 µM
# 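Note: compound exposure lasted seven days before the viability readout.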
# 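Throughout, for viability, T/C: 100% = DMSO vehicle control wells.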
smiles,measurement,setting,value
Cn1ncnc1[C@H]1c2n[nH]c(=O)c3cc(F)cc(c23)N[C@@H]1c1ccc(F)cc1 + CNC(=O)c1ccc(Nc2nc(OC3CCCC3)c3c(-c4ccc5nc(C)oc5c4)c[nH]c3n2)c(OC)c1,pIC50,second compound 0.0316 µM,7.86
same,pIC50,second compound 0.1 µM,> 9.50
same,pIC50,second compound 0.316 µM,> 9.50
same,pIC50,second compound 1 µM,> 9.50
same,pIC50,second compound 3.16 µM,> 9.50
same,pIC50,second compound 10 µM,> 9.50
same,"viability, T/C","second compound 0.0316 µM, first compound 0.000316 µM",71.4%
same,"viability, T/C","second compound 0.0316 µM, first compound 0.001 µM",64.9%
same,"viability, T/C","second compound 0.0316 µM, first compound 0.00316 µM",65.7%
same,"viability, T/C","second compound 0.0316 µM, first compound 0.01 µM",56.2%
same,"viability, T/C",[1],34.6%
same,"viability, T/C",[2],14.7%
same,"viability, T/C","second compound 0.1 µM, first compound 0.000316 µM",41.1%
same,"viability, T/C","second compound 0.1 µM, first compound 0.001 µM",35.1%
same,"viability, T/C","second compound 0.1 µM, first compound 0.00316 µM",26.6%
same,"viability, T/C","second compound 0.1 µM, first compound 0.01 µM",26.9%
same,"viability, T/C",[3],17.6%
same,"viability, T/C",[4],13.1%
same,"viability, T/C","second compound 0.316 µM, first compound 0.000316 µM",39%
same,"viability, T/C","second compound 0.316 µM, first compound 0.001 µM",38.5%
same,"viability, T/C","second compound 0.316 µM, first compound 0.00316 µM",32.1%
same,"viability, T/C","second compound 0.316 µM, first compound 0.01 µM",27.2%
same,"viability, T/C",[5],17.1%
same,"viability, T/C",[6],8.94%
same,"viability, T/C","second compound 1 µM, first compound 0.000316 µM",39.4%
same,"viability, T/C","second compound 1 µM, first compound 0.001 µM",30.3%
same,"viability, T/C","second compound 1 µM, first compound 0.00316 µM",27.8%
same,"viability, T/C","second compound 1 µM, first compound 0.01 µM",21.5%
same,"viability, T/C",[7],14%
same,"viability, T/C",[8],7.18%
same,"viability, T/C","second compound 3.16 µM, first compound 0.000316 µM",35.4%
same,"viability, T/C","second compound 3.16 µM, first compound 0.001 µM",31.1%
same,"viability, T/C","second compound 3.16 µM, first compound 0.00316 µM",24.1%
same,"viability, T/C","second compound 3.16 µM, first compound 0.01 µM",25.2%
same,"viability, T/C",[9],16.6%
same,"viability, T/C",[10],10.1%
same,"viability, T/C","second compound 10 µM, first compound 0.000316 µM",25.4%
same,"viability, T/C","second compound 10 µM, first compound 0.001 µM",30.7%
same,"viability, T/C","second compound 10 µM, first compound 0.00316 µM",23.5%
same,"viability, T/C","second compound 10 µM, first compound 0.01 µM",19.1%
same,"viability, T/C",[11],15.1%
same,"viability, T/C",[12],9.79%
Nc1ccn(C2OC(CO)C(O)C2(F)F)c(=O)n1 (stereo unspecified) + CNC(=O)c1ccc(Nc2nc(OC3CCCC3)c3c(-c4ccc5nc(C)oc5c4)c[nH]c3n2)c(OC)c1,pIC50,second compound 0.0316 µM,> 7.50
same,pIC50,second compound 0.1 µM,> 7.50
same,pIC50,second compound 0.316 µM,> 7.50
same,pIC50,second compound 1 µM,> 7.50
same,pIC50,second compound 3.16 µM,> 7.50
same,pIC50,second compound 10 µM,> 7.50
same,"viability, T/C",[1],6.55%
same,"viability, T/C",[2],3.76%
same,"viability, T/C",[13],4.74%
same,"viability, T/C",[14],5.45%
same,"viability, T/C",[15],5.63%
same,"viability, T/C",[16],3.43%
same,"viability, T/C",[3],7.18%
same,"viability, T/C",[4],4.04%
same,"viability, T/C",[17],4.89%
same,"viability, T/C",[18],3%
same,"viability, T/C",[19],4.22%
same,"viability, T/C",[20],2.03%
same,"viability, T/C",[5],6.96%
same,"viability, T/C",[6],5.27%
same,"viability, T/C",[21],3.29%
same,"viability, T/C",[22],3.59%
same,"viability, T/C",[23],3.28%
same,"viability, T/C",[24],2.14%
same,"viability, T/C",[7],12.8%
same,"viability, T/C",[8],6.01%
same,"viability, T/C",[25],3.29%
same,"viability, T/C",[26],2.77%
same,"viability, T/C",[27],3.38%
same,"viability, T/C",[28],1.2%
same,"viability, T/C",[9],13.6%
same,"viability, T/C",[10],6.51%
same,"viability, T/C",[29],2.77%
same,"viability, T/C",[30],2.75%
same,"viability, T/C",[31],2.62%
same,"viability, T/C",[32],0.99%
same,"viability, T/C",[11],13.8%
same,"viability, T/C",[12],8.14%
same,"viability, T/C",[33],4.09%
same,"viability, T/C",[34],2.72%
same,"viability, T/C",[35],3.57%
same,"viability, T/C",[36],1.76%
O=c1[nH]cc(F)c(=O)[nH]1 + CNC(=O)c1ccc(Nc2nc(OC3CCCC3)c3c(-c4ccc5nc(C)oc5c4)c[nH]c3n2)c(OC)c1,pIC50,second compound 0.0316 µM,< 5.00
same,pIC50,second compound 0.1 µM,> 7.50
same,pIC50,second compound 0.316 µM,> 7.50
same,pIC50,second compound 1 µM,> 7.50
same,pIC50,second compound 3.16 µM,> 7.50
same,pIC50,second compound 10 µM,> 7.50
same,"viability, T/C",[1],86.5%
same,"viability, T/C",[2],76.3%
same,"viability, T/C",[13],80.7%
same,"viability, T/C",[14],70.5%
same,"viability, T/C",[15],70.8%
same,"viability, T/C",[16],54.5%
same,"viability, T/C",[3],50.4%
same,"viability, T/C",[4],35.9%
same,"viability, T/C",[17],31.5%
same,"viability, T/C",[18],33.3%
same,"viability, T/C",[19],29.7%
same,"viability, T/C",[20],28.2%
same,"viability, T/C",[5],41%
same,"viability, T/C",[6],35.2%
same,"viability, T/C",[21],34.5%
same,"viability, T/C",[22],33.7%
same,"viability, T/C",[23],24%
same,"viability, T/C",[24],18.1%
same,"viability, T/C",[7],36.9%
same,"viability, T/C",[8],29.2%
same,"viability, T/C",[25],30.5%
same,"viability, T/C",[26],27.2%
same,"viability, T/C",[27],20.2%
same,"viability, T/C",[28],10.7%
same,"viability, T/C",[9],36.1%
same,"viability, T/C",[10],37.1%
same,"viability, T/C",[29],34.8%
same,"viability, T/C",[30],19.3%
same,"viability, T/C",[31],15.3%
same,"viability, T/C",[32],9.65%
same,"viability, T/C",[11],42.5%
same,"viability, T/C",[12],31.3%
same,"viability, T/C",[33],28.6%
same,"viability, T/C",[34],23.5%
same,"viability, T/C",[35],14.4%
same,"viability, T/C",[36],9.98%
